# Laboratory results from patent US20040110758A1, “4,6-Diaminosubstituted-2-[oxy or aminoxy]-[1,3,5]triazines as protein tyrosine kinase inhibitors” (priority 2002, published 2004).
# Columns and labels:
# KDR [1] = target: T1, KDR (Homo sapiens, UniProt P35968); test: KDR Enzymatic Assay (fluorescence polarization competition immunoassay); format: biochemical; conditions: for IC50: 1.6 nM KDR, 10 μM ATP, 10 μg/ml poly(E4,Y), averages of three independent measurements, read-out: IC50 Enzyme; for protein tyrosine kinase (KDR) inhibition, potency in words: text commentary on Table 1
# Protocol: KDR Enzymatic Assay. A fluorescence polarization competition immunoassay was used to determine the compound potency for KDR. The assay was performed in black 96-well microplates (LJL BioSystems). The assay buffer used was 100 mM HEPES, pH 7.5, 1 mM DTT, 0.01% (v/v) Tween-20. Compounds were diluted in assay buffer containing 4% DMSO just prior to the assay. […] The kinase reaction was initiated by adding 2 μl of 8 nM KDR in assay buffer.
# The plates were incubated at room temperature for 5 min. At the end of the incubation, the reaction was quenched with 1.2 μl of 50 mM EDTA. Following a 5-min incubation, each well received 10 μl of a 1:1:3 mixture of anti-phosphotyrosine antibody, 10×, PTK green tracer, 10× (vortexed), FP dilution buffer, respectively (all from PanVera, cat. # P2837). The plate was covered, incubated for 30 min at room temperature and the fluorescence polarization was read on an ANALYST™ HT Assay Detection System (LJL Biosystems, Sunnyvale, Calif.). The instrument settings were: 485 nm excitation filter; 530 nm emission filter; Z height: middle of well; G factor: 0.93. […] The IC50 values reported are the averages of three independent measurements.
# Target sequence in this assay (P35968 20-1356, species assumed): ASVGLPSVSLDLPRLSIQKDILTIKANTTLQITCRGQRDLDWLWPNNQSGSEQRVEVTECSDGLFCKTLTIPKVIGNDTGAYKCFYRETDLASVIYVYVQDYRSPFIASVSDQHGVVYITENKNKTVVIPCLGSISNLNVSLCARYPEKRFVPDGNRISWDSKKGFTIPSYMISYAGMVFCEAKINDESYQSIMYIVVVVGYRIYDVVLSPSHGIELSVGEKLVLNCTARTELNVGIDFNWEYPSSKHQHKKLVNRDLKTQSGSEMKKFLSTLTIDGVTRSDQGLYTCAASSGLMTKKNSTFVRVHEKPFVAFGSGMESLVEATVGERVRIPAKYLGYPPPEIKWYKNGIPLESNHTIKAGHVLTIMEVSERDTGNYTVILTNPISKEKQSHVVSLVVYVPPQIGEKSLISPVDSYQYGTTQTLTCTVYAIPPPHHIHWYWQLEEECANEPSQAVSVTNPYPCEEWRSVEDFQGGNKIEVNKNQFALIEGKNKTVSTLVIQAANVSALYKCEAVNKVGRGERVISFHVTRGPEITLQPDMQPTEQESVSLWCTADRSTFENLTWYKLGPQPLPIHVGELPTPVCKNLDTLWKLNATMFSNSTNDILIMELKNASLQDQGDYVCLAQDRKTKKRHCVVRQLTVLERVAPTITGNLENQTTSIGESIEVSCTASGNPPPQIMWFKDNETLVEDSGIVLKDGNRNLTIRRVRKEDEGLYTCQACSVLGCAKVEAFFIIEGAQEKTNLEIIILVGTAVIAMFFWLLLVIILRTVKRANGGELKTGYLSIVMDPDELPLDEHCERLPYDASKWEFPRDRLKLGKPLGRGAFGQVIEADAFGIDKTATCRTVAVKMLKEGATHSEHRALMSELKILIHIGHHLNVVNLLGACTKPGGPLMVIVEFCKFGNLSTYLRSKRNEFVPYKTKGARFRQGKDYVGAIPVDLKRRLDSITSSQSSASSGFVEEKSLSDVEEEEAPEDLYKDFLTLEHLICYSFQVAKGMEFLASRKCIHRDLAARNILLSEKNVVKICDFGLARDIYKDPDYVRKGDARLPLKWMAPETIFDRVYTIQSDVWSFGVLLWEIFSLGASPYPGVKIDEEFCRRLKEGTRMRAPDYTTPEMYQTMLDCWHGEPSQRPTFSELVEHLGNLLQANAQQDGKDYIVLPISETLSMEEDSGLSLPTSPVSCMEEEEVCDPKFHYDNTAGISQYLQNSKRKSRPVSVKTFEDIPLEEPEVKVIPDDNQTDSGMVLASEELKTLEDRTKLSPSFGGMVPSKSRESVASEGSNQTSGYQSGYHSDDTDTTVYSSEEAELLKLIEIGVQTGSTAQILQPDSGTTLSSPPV
# KDR [2] = target: T1, KDR; test: KDR Cell-Based Assay (VEGF-stimulated MAP kinase activation in HUVEC); parameters: which express endogenous Flk-1(KDR); endogenous in cells; host or cells: HUVEC (human umbilical vein endothelial cells); conditions: compounds 30 minutes prior to 25 ng/ml VEGF for 10 minutes, phosphorylated MAP kinase immunoblot
# Protocol: KDR Cell-Based Assay. To determine the effect of the test compounds on KDR function in cells, VEGF-stimulated MAP kinase activation in human umbilical vein endothelial cells (HUVEC), which express endogenous Flk-1(KDR), was examined. HUVECs were grown to confluence in EMB-2 endothelial cell media (Biowhittaker Inc., Walkersville, Md.) at 37° C. and 5% CO2. Confluent, quiescent HUVECs were treated with the test compounds 30 minutes prior to stimulation with 25 ng/ml VEGF for 10 minutes at 37° C. These cells were then lysed in HNTG buffer (50 mM HEPES, 150 mM NaCl, 1% triton-X-100, 1.5 mM MgCl2, 10% glycerol, 10 mM NaF, 1 mM EDTA, 10 mM sodium pyrophosphate, 1 uM PMSF and 250 uM NaVO4). Cell lysates (40 ug total protein) were separated by SDS-PAGE and transferred to nitrocellulose. Immunoblots were probed with a polyclonal antibody to phosphorylated MAP kinase (Cell Signaling Technologies, Woburn, Mass.) and alkaline phosphatase conjugated secondary antibody (Biorad Labs, Hercules, Calif.). Immunoblot detection was done by measuring the fluorescent product of the alkaline phosphatase reaction with the substrate 9H-(1,3-dichloro-9,9-dimethylacridin-2-one-7-yl) phosphate, diammonium salt (DDAO phosphate) (Molecular Probes, Eugene, Oreg.) using a Molecular Dynamics Typhoon Imaging system (Molecular Dynamics, Sunnyvale, Calif.). Quantitation of DDAO phosphate signal and IC50 determinations were done with Molecular Dynamics ImageQuant software.
# Target sequence in this assay (P35968 20-1356): as the sequence (P35968 20-1356, species assumed) above
SMILES,IC50 (KDR [1]),IC50 (KDR [2]),"protein tyrosine kinase (KDR) inhibition, potency in words (KDR [1])"
"CCN(Cc1ccccc1)c1nc(O)nc(Nc2ccc3ncsc3c2)n1 [Example 1, 4-(Benzothiazol-6-ylamino)-6-(N-ethylbenzylamino)-[1,3,5]triazin-2-ol]",< 1 µM,< 1 µM,
"Oc1nc(NCc2ccccc2)nc(Nc2ccc3ncsc3c2)n1 [Example 2, 4-(Benzothiazol-6-ylamino)-6-(benzylamino)-[1,3,5]triazin-2-ol]",1 to 15 µM,,less active than Examples 3 and 4
"C[C@@H](Nc1nc(O)nc(Nc2ccc3ncsc3c2)n1)c1ccccc1 [Example 3, (R)-4-(Benzothiazol-6-ylamino)-6-(1-phenylethylamino)-[1,3,5]triazin-2-ol]",< 1 µM,1 to 15 µM,more potent than the corresponding S-enantiomer
"C[C@H](Nc1nc(O)nc(Nc2ccc3ncsc3c2)n1)c1ccccc1 [Example 4, (S)-4-(Benzothiazol-6-ylamino)-6-(1-phenylethylamino)-[1,3,5]triazin-2-ol]",1 to 15 µM,,
CC(C)(Nc1nc(O)nc(Nc2ccc3ncsc3c2)n1)c1ccccc1 [Example 5],< 1 µM,< 1 µM,one of the most potent protein tyrosine kinase inhibitors tested
"CN(CCc1ccccn1)c1nc(O)nc(Nc2ccc3ncsc3c2)n1 [Example 6, 4-(Benzothiazol-6-ylamino)-6-[methyl-(2-pyridyl-2-ylethyl)amino]-[1,3,5]triazin-2-ol]",< 1 µM,1 to 15 µM,
"CC(C)(Nc1nc(O)nc(Nc2ccc3ncccc3c2)n1)c1ccccc1 [Example 7, 4-(1-methyl-1-phenylethylamino)-6-(guinolin-6-ylamino)-[1,3,5]triazin-2-ol]",< 1 µM,1 to 15 µM,
"Oc1nc(Nc2ccc3ncsc3c2)nc(N2CCCC2c2ccccc2)n1 (stereo not shown) [Example 8, 4-(Benzothiazol-6-ylamino)-6-(2-phenyl-pyrrolidin-1-yl)-[1,3,5]triazin-2-ol]",< 1 µM,1 to 15 µM,
"Oc1nc(Nc2ccc3ncsc3c2)nc(N2CCSC(c3ccccc3)C2)n1 (stereo not shown) [Example 9, 4-(Benzothiazol-6-ylamino)-6-(2-phenyl-thiomorpholin-4-yl)-[1,3,5]triazin-2-ol]",< 1 µM,1 to 15 µM,potent inhibitors
"Oc1nc(Nc2ccc3ncsc3c2)nc(N2CCSCC2c2ccccc2)n1 (stereo not shown) [Example 10, 4-(Benzothiazol-6-ylamino)-6-(3-phenyl-thiomorpholin-4-yl)-[1,3,5]triazin-2-ol]",< 1 µM,1 to 15 µM,potent inhibitors
CN(c1ccc2cn[nH]c2c1)c1nc(O)nc(Nc2ccc3ncsc3c2)n1 [Example 11],< 1 µM,1 to 15 µM,
CC(C)(Nc1nc(NO)nc(Nc2ccc3ncsc3c2)n1)c1ccccc1 [Example 14],< 1 µM,1 to 15 µM,
"CC(C)(Nc1nc(N)nc(Nc2ccc3ncsc3c2)n1)c1ccccc1 [Example 15, N-(Benzothiazol-6-yl)-N′-(1-methyl-1-phenylethyl)-[1,3,5]triazine-2,4,6-triamine]",1 to 15 µM,,
"CC(C)(Nc1ncnc(Nc2ccc3ncsc3c2)n1)c1ccccc1 [Example 16, N-(Benzothiazol-6-yl)-N′-(1-methyl-1-phenylethyl)-[1,3,5]triazine-2,4-diamine]",1 to 15 µM,,
"COc1nc(Nc2ccc3ncsc3c2)nc(NC(C)(C)c2ccccc2)n1 [Example 17, N-(Benzothiazol-6-yl)-6-methoxy-N′-(1-methyl-1-1-phenylethyl)-[1,3,5]triazine-2,4-diamine]",1 to 15 µM,,
"CC(C)(Nc1nc(Nc2ccc3ncsc3c2)nc(OCc2ccccc2)n1)c1ccccc1 [Example 18, N-(Benzothiazol-6-yl)-6-benzyloxy-N′-(1-methyl-1-phenylethyl)-[1,3,5]triazine-2,4-diamine]",1 to 15 µM,,
